In the NIST ThermoML archive (doi:10.1016/j.tca.2007.11.004):
Values joined by “and” are separate entries in the source; they are usually repeats but may differ in a detail not shown here. Identical values can stand only once. Numbers after ± are expanded uncertainties.

Settings: Crystal, Transpiration method

## O=[Te]=O [tellurium dioxide]
884 K
  vapor or sublimation pressure: 0.0001487 ± 7.5e-06 kPa
889 K
  vapor or sublimation pressure: 0.0001692 ± 8.6e-06 kPa
895 K
  vapor or sublimation pressure: 0.0001987 ± 1e-05 kPa
899 K
  vapor or sublimation pressure: 0.0002538 ± 1.3e-05 kPa
905 K
  vapor or sublimation pressure: 0.0003102 ± 1.6e-05 kPa
909 K
  vapor or sublimation pressure: 0.0003271 ± 1.7e-05 kPa
915 K
  vapor or sublimation pressure: 0.0004741 ± 2.4e-05 kPa
925 K
  vapor or sublimation pressure: 0.0006099 ± 3.1e-05 kPa and 0.0006023 ± 3e-05 kPa and 0.0005679 ± 2.9e-05 kPa
926 K
  vapor or sublimation pressure: 0.0005409 ± 2.7e-05 kPa
935 K
  vapor or sublimation pressure: 0.0009295 ± 4.7e-05 kPa
940 K
  vapor or sublimation pressure: 0.001155 ± 5.8e-05 kPa
941 K
  vapor or sublimation pressure: 0.001072 ± 5.4e-05 kPa
946 K
  vapor or sublimation pressure: 0.001255 ± 6.3e-05 kPa
951 K
  vapor or sublimation pressure: 0.001465 ± 7.3e-05 kPa
960 K
  vapor or sublimation pressure: 0.002168 ± 0.00011 kPa
971 K
  vapor or sublimation pressure: 0.003407 ± 0.00017 kPa
976 K
  vapor or sublimation pressure: 0.003717 ± 0.00019 kPa
982 K
  vapor or sublimation pressure: 0.004543 ± 0.00023 kPa
987 K
  vapor or sublimation pressure: 0.004956 ± 0.00025 kPa
